Values joined by “and” are separate entries in the source; they are usually repeats but may differ in a detail not shown here. Equal entries are not always repeated. Inconclusive results and toxic doses are left out.
Test system: L1210 leukemia ip in BDF1 mice, survival T/C
Assay: NCI In Vivo Anticancer Drug Screen. Data for tumor model L1210 Leukemia (intraperitoneal) in B6D2F1 (BDF1) mice
Details: endpoint: mean survival time, higher = longer survival
Summary of the method: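 Antitumor effect is assessed in tumor-bearing animals. Survival in the compound arm is compared with a vehicle-dosed control arm and expressed as their quotient.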

[1] = dose: 100.0 mg/kg/injection, schedule: Q04DX002 (ip), vehicle: Klucel (hydroxypropylcellulose) (HPC)
[2] = dose: 200.0 mg/kg/injection, schedule: Q04DX002 (ip), vehicle: Klucel (hydroxypropylcellulose) (HPC)
[3] = dose: 400.0 mg/kg/injection, schedule: Q04DX002 (ip), vehicle: Klucel (hydroxypropylcellulose) (HPC)
[4] = dose: 100.0 mg/kg/injection, schedule: Q04DX003 (ip), vehicle: saline
[5] = dose: 200.0 mg/kg/injection, schedule: Q04DX003 (ip), vehicle: saline
[6] = dose: 400.0 mg/kg/injection, schedule: Q04DX003 (ip), vehicle: saline
[7] = dose: 50.0 mg/kg/injection, schedule: Q01DX009 (ip), vehicle: saline with Tween-80
[8] = dose: 100.0 mg/kg/injection, schedule: Q01DX009 (ip), vehicle: saline with Tween-80
[9] = dose: 100.0 mg/kg/injection, schedule: Q04DX003 (ip), vehicle: saline with Tween-80
[10] = dose: 100.0 mg/kg/injection, schedule: Q04DX003 (ip), vehicle: Klucel (hydroxypropylcellulose) (HPC)
[11] = dose: 200.0 mg/kg/injection, schedule: Q04DX003 (ip), vehicle: Klucel (hydroxypropylcellulose) (HPC)
[12] = dose: 400.0 mg/kg/injection, schedule: Q04DX003 (ip), vehicle: Klucel (hydroxypropylcellulose) (HPC)
[13] = dose: 100.0 mg/kg/injection, schedule: Q01DX009 (ip), vehicle: saline
[14] = dose: 200.0 mg/kg/injection, schedule: Q01DX009 (ip), vehicle: saline
[15] = dose: 400.0 mg/kg/injection, schedule: Q01DX009 (ip), vehicle: saline

CCO/C=N\c1c(C#N)c(CC#N)nn1C
T/C [1]: 102 % of control
T/C [2]: 98 % of control
T/C [3]: 102 % of control

COc1cccc(C2CCCCCC2OS(C)(=O)=O)c1OC (centres undefined)
T/C (dose: 100.0 mg/kg/injection, schedule: Q01DX001 (ip), vehicle: saline): 109 % of control
T/C [4]: 102 % of control
T/C (dose: 200.0 mg/kg/injection, schedule: Q01DX001 (ip), vehicle: saline): 102 % of control
T/C [5]: 109 % of control
T/C (dose: 400.0 mg/kg/injection, schedule: Q01DX001 (ip), vehicle: saline): 112 % of control
T/C [6]: 102 % of control

CCCNC(=O)Nc1ccc(S(N)(=O)=O)cc1
T/C [1]: 97 % of control
T/C [2]: 97 % of control
T/C [3]: 87 % of control

CCN(O)C(N)=O
T/C (dose: 34.5 mg/kg/injection, schedule: Q01DX009 (ip), vehicle: saline): 107 % of control
T/C (dose: 52.0 mg/kg/injection, schedule: Q01DX009 (ip), vehicle: saline): 111 % of control
T/C (dose: 62.0 mg/kg/injection, schedule: Q03HX024 (ip), vehicle: saline): 101 % of control
T/C (dose: 78.0 mg/kg/injection, schedule: Q01DX009 (ip), vehicle: saline): 113 % of control
T/C (dose: 117.0 mg/kg/injection, schedule: Q01DX009 (ip), vehicle: saline): 110 % of control and 122 % of control (2×)
T/C (dose: 125.0 mg/kg/injection, schedule: Q03HX024 (ip), vehicle: saline): 98 % of control
T/C (dose: 178.0 mg/kg/injection, schedule: Q01DX009 (ip), vehicle: saline): 112 % of control
T/C (dose: 600.0 mg/kg/injection, schedule: Q01DX009 (ip), vehicle: saline): 166 % of control and 167 % of control

Nc1ccc2cc(O)ccc2c1
T/C [7]: 94 % of control

O=C1NC2C(NC(=O)N2Cl)N1Cl (centres undefined)
T/C (dose: 12.5 mg/kg/injection, schedule: Q01DX009 (ip), vehicle: saline with Tween-80): 97 % of control
T/C (dose: 25.0 mg/kg/injection, schedule: Q01DX009 (ip), vehicle: saline with Tween-80): 100 % of control
T/C (dose: 25.0 mg/kg/injection, schedule: Q04DX003 (ip), vehicle: saline with Tween-80): 94 % of control
T/C (dose: 40.0 mg/kg/injection, schedule: Q01DX Z (ip), vehicle: carboxymethylcellulose (CMC)): 92 % of control
T/C [7]: 94 % of control
T/C (dose: 50.0 mg/kg/injection, schedule: Q04DX003 (ip), vehicle: saline with Tween-80): 95 % of control
T/C [8]: 94 % of control
T/C [9]: 105 % of control

OC1(C#CC2(O)c3ccccc3-c3ccccc32)c2ccccc2-c2ccccc21
T/C (dose: 100.0 mg/kg/injection, schedule: Q01DX009 (ip), vehicle: Klucel (hydroxypropylcellulose) (HPC)): 93 % of control
T/C [10]: 106 % of control
T/C (dose: 200.0 mg/kg/injection, schedule: Q01DX009 (ip), vehicle: Klucel (hydroxypropylcellulose) (HPC)): 97 % of control
T/C [11]: 106 % of control
T/C (dose: 400.0 mg/kg/injection, schedule: Q01DX009 (ip), vehicle: Klucel (hydroxypropylcellulose) (HPC)): 93 % of control
T/C [12]: 100 % of control

CN1C2CSCC1CC(O)C2 (centres undefined)
T/C (dose: 37.0 mg/kg/injection, schedule: Q04DX003 (ip), vehicle: other): 101 % of control
T/C (dose: 37.5 mg/kg/injection, schedule: Q01DX009 (ip), vehicle: other): 105 % of control
T/C (dose: 75.0 mg/kg/injection, schedule: Q01DX001 (ip), vehicle: other): 102 % of control
T/C (dose: 75.0 mg/kg/injection, schedule: Q01DX001 (ip), vehicle: saline): 103 % of control
T/C (dose: 75.0 mg/kg/injection, schedule: Q01DX009 (ip), vehicle: other): 104 % of control
T/C (dose: 75.0 mg/kg/injection, schedule: Q04DX003 (ip), vehicle: other): 98 % of control
T/C (dose: 150.0 mg/kg/injection, schedule: Q01DX001 (ip), vehicle: other): 93 % of control
T/C (dose: 150.0 mg/kg/injection, schedule: Q01DX009 (ip), vehicle: other): 104 % of control
T/C (dose: 150.0 mg/kg/injection, schedule: Q04DX003 (ip), vehicle: other): 101 % of control

CC12CCC3(CC1CCC(OC(=O)c1ccccc1)C2)OCCO3 (centres undefined)
T/C (dose: 100.0 mg/kg/injection, schedule: Q01DX009 (ip), vehicle: other): 93 % of control
T/C (dose: 100.0 mg/kg/injection, schedule: Q04DX003 (ip), vehicle: other): 108 % of control
T/C (dose: 200.0 mg/kg/injection, schedule: Q01DX009 (ip), vehicle: other): 95 % of control
T/C (dose: 200.0 mg/kg/injection, schedule: Q04DX003 (ip), vehicle: other): 106 % of control
T/C (dose: 400.0 mg/kg/injection, schedule: Q01DX009 (ip), vehicle: other): 90 % of control
T/C (dose: 400.0 mg/kg/injection, schedule: Q04DX003 (ip), vehicle: other): 95 % of control

CCOC(=O)/C(C#N)=C/C(C)c1ccccc1 (centres undefined)
T/C [13]: 108 % of control
T/C [14]: 104 % of control
T/C [15]: 95 % of control

OCCOCc1ccccc1
T/C [4]: 104 % of control
T/C [5]: 98 % of control
T/C [6]: 100 % of control

Nc1ccc2ncccc2c1 (tested in a mixture with another compound)
T/C (dose: 100.0 mg/kg/injection, schedule: Q04DX003 (ip), vehicle: gum acacia): 100 % of control
T/C (dose: 200.0 mg/kg/injection, schedule: Q04DX003 (ip), vehicle: gum acacia): 91 % of control
T/C (dose: 400.0 mg/kg/injection, schedule: Q04DX003 (ip), vehicle: gum acacia): 100 % of control

O=[N+]([O-])/C=C/c1ccc(O)cc1
T/C (dose: 50.0 mg/kg/injection, schedule: Q01DX015 (ip), vehicle: saline): 97 % of control
T/C (dose: 50.0 mg/kg/injection, schedule: Q04DX003 (ip), vehicle: acetone): 96 % of control

CCn1c2ccccc2c2cc(/C=C\[N+](=O)[O-])ccc21
T/C [1]: 91 % of control
T/C [2]: 94 % of control
T/C [3]: 97 % of control

CCOC(=O)OCCc1ccccc1
T/C (dose: 100.0 mg/kg/injection, schedule: Q01DX001 (ip), vehicle: carboxymethylcellulose (CMC)): 106 % of control
T/C (dose: 100.0 mg/kg/injection, schedule: Q01DX009 (ip), vehicle: carboxymethylcellulose (CMC)): 103 % of control and 92 % of control
T/C (dose: 100.0 mg/kg/injection, schedule: Q04DX002 (ip), vehicle: carboxymethylcellulose (CMC)): 97 % of control and 109 % of control
T/C (dose: 100.0 mg/kg/injection, schedule: Q04DX003 (ip), vehicle: carboxymethylcellulose (CMC)): 98 % of control
T/C (dose: 200.0 mg/kg/injection, schedule: Q01DX001 (ip), vehicle: carboxymethylcellulose (CMC)): 100 % of control
T/C (dose: 200.0 mg/kg/injection, schedule: Q01DX009 (ip), vehicle: carboxymethylcellulose (CMC)): 95 % of control and 103 % of control
T/C (dose: 200.0 mg/kg/injection, schedule: Q04DX002 (ip), vehicle: carboxymethylcellulose (CMC)): 98 % of control and 100 % of control
T/C (dose: 200.0 mg/kg/injection, schedule: Q04DX003 (ip), vehicle: carboxymethylcellulose (CMC)): 98 % of control
T/C (dose: 400.0 mg/kg/injection, schedule: Q01DX001 (ip), vehicle: carboxymethylcellulose (CMC)): 105 % of control
T/C (dose: 400.0 mg/kg/injection, schedule: Q01DX009 (ip), vehicle: carboxymethylcellulose (CMC)): 93 % of control and 98 % of control
T/C (dose: 400.0 mg/kg/injection, schedule: Q04DX002 (ip), vehicle: carboxymethylcellulose (CMC)): 97 % of control and 106 % of control
T/C (dose: 400.0 mg/kg/injection, schedule: Q04DX003 (ip), vehicle: carboxymethylcellulose (CMC)): 102 % of control

c1ccc2c(c1)ccc1ncccc12
T/C [10]: 103 % of control
T/C [11]: 102 % of control
T/C [12]: 101 % of control

COc1ccc(C=Nc2cccc3ccccc23)cc1
T/C [10]: 98 % of control
T/C [11]: 96 % of control
T/C [12]: 103 % of control

ClCCCC1(c2ccc(Oc3ccccc3)cc2)OCCO1
T/C [8]: 88 % of control
T/C [9]: 105 % of control
T/C (dose: 200.0 mg/kg/injection, schedule: Q01DX009 (ip), vehicle: saline with Tween-80): 92 % of control
T/C (dose: 200.0 mg/kg/injection, schedule: Q04DX003 (ip), vehicle: saline with Tween-80): 95 % of control
T/C (dose: 400.0 mg/kg/injection, schedule: Q01DX009 (ip), vehicle: saline with Tween-80): 93 % of control
T/C (dose: 400.0 mg/kg/injection, schedule: Q04DX003 (ip), vehicle: saline with Tween-80): 94 % of control

CSCC(N)CO (centres undefined)
T/C [13]: 94 % of control
T/C [4]: 100 % of control
T/C [14]: 100 % of control
T/C [5]: 103 % of control
T/C [15]: 100 % of control
T/C [6]: 103 % of control

Reference: PubChem BioAssay AID248 (DTP/NCI, 2004)
